# Measured values published in the supplement of paper PMC13380429.
# How the values were obtained:
# Conditions in all cases: 72 h
# [1] = tested on: Caco-2; assay: cell viability relative to DMSO; higher = less toxic
# [2] = tested on: Calu-3; assay: as above
# [3] = tested on: HepG2; assay: as above
# [4] = tested on: U2OS; assay: as above
# [5] = tested on: Vero E6; assay: as above
# [6] = tested on: Caco-2; assay: relative viability EC50 (midpoint between 100% and the lowest measured viability); higher = less toxic
# [7] = tested on: Calu-3; assay: as above
# [8] = tested on: HepG2; assay: as above
# [9] = tested on: U2OS; assay: as above
# [10] = tested on: Vero E6; assay: as above
# [11] = tested on: Caco-2; assay: drug sensitivity score (DSS) for viability; higher = more toxic; extreme values may be limits of the assay
# [12] = tested on: Calu-3; assay: as above
# [13] = tested on: HepG2; assay: as above
# [14] = tested on: U2OS; assay: as above
# [15] = tested on: Vero E6; assay: as above
Structure (SMILES),cell viability ([1]; 1 nM),cell viability ([1]; 10 nM),cell viability ([1]; 100 nM),cell viability ([1]; 1000 nM),cell viability ([1]; 10000 nM),cell viability ([2]; 1 nM),cell viability ([2]; 10 nM),cell viability ([2]; 100 nM),cell viability ([2]; 1000 nM),cell viability ([2]; 10000 nM),cell viability ([3]; 1 nM),cell viability ([3]; 10 nM),cell viability ([3]; 100 nM),cell viability ([3]; 1000 nM),cell viability ([3]; 10000 nM),cell viability ([4]; 1 nM),cell viability ([4]; 10 nM),cell viability ([4]; 100 nM),cell viability ([4]; 1000 nM),cell viability ([4]; 10000 nM),cell viability ([5]; 1 nM),cell viability ([5]; 10 nM),cell viability ([5]; 100 nM),cell viability ([5]; 1000 nM),cell viability ([5]; 10000 nM),relative viability EC50 [6],relative viability EC50 [7],relative viability EC50 [8],relative viability EC50 [9],relative viability EC50 [10],drug sensitivity score [11],drug sensitivity score [12],drug sensitivity score [13],drug sensitivity score [14],drug sensitivity score [15]
C1CCC(/N=C(\NC23CC4CC(CC(C4)C2)C3)N2CCOCC2)CC1,101%,91.7%,102%,96.7%,101%,106%,90.2%,103%,89%,100%,96.1%,108%,91.7%,113%,108%,96.4%,94.8%,102%,98.6%,89.5%,88.3%,96%,90.6%,98.9%,104%,> 10 µM,> 10 µM,> 10 µM,> 10 µM,> 10 µM,0,0,0,0,0
CC(Oc1ccc(O)cc1)(P(=O)(O)O)P(=O)(O)O,110%,98.7%,98%,87.1%,104%,106%,88.6%,103%,84.8%,97.1%,106%,95.4%,97.6%,99.2%,102%,104%,99.5%,105%,98%,100%,96.5%,104%,97.7%,98.7%,95.8%,> 10 µM,> 10 µM,> 10 µM,> 10 µM,> 10 µM,0,0,0,0,0
CC1=NN=C(c2ccc(N)cc2)c2cc3c(cc2C1)OCO3,95.7%,100%,107%,102%,81%,107%,88.2%,103%,87.6%,95.1%,109%,93.2%,104%,97.9%,106%,93.3%,93.9%,99.3%,96.8%,94%,94.5%,102%,98.4%,104%,100%,> 10 µM,> 10 µM,> 10 µM,> 10 µM,> 10 µM,0.4,0,0,0,0
CCCC(=O)C1(c2ccccc2)CCN(C(=O)[C@@H](Cc2ccc(OC)cc2)NC(=O)[C@@H](N)Cc2cncn2C)CC1,108%,94.9%,97.3%,102%,99.7%,98.3%,100%,96.6%,101%,106%,95.4%,105%,97.8%,118%,95.3%,98.8%,97.9%,104%,102%,97.7%,102%,101%,98.7%,102%,97.1%,> 10 µM,> 10 µM,> 10 µM,> 10 µM,> 10 µM,0,0,0,0,0
CCCNCCc1ccc(NS(=O)(=O)c2ccc(OC(F)(F)F)cc2)cc1,102%,102%,91.5%,103%,98.2%,97.8%,108%,102%,100%,97.4%,101%,92.5%,104%,85.5%,90%,105%,104%,100%,98.4%,92.9%,116%,106%,101%,103%,88.2%,> 10 µM,> 10 µM,> 10 µM,> 10 µM,> 10 µM,0,0,1.1,0,0
